Measured values from ChEMBL document CHEMBL1201862, “PubChem BioAssay data set” (2004).
Activity calls are given as the source filed them.

Experiments:
[1] = Luminescence Cell-Based Dose Confirmation HTS to Identify Inhibitors of Platelet Dense Granule Release. [Related pubchem assays: 1663 (Primary HTS), 1678 (Summary of Project)]; type: functional
[2] = target: Luciferin 4-monooxygenase (Photinus pyralis, UniProt P08659); experiment: inhibition of purified Photinus pyralis luciferase – biochemical, luminescence, dose response (AID 1891)
Luciferin 4-monooxygenase, sequence (P08659 whole entry): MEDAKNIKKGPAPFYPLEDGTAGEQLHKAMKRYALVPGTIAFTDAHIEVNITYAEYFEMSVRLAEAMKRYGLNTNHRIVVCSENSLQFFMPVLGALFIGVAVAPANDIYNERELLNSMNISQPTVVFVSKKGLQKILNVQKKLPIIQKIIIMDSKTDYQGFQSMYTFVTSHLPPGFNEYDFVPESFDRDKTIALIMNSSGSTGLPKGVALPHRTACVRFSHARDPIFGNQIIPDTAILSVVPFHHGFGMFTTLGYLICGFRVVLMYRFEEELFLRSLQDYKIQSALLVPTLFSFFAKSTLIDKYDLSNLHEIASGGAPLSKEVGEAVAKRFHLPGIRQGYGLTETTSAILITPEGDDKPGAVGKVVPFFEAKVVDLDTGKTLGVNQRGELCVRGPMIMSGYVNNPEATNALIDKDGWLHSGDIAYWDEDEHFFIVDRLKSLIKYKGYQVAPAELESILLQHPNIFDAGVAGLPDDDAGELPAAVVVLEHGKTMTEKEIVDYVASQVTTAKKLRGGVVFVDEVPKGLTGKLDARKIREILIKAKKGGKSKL

[3] = alpha-synuclein stem-loop luciferase translation blockers – H4 neuroglioma cells, luminescence, confirmation (AID 1988); type: functional, cell-based
[4] = luciferase reporter signal suppression in cells – H4 neuroglioma cells, luminescence, dose response (AID 1990); type: functional, cell-based
[5] = Luminescence Cell-Based Dose Response HTS to Identify Inhibitors of 5'UTR Stem-Loop Driven Prion Protein mRNA Translation in H4 Neuroglioblastoma Cells. [Related pubchem assays: 1827 (Project Summary), 1813 (Primary HTS)]; type: functional
[6] = target: T1, Zinc finger protein mex-5 (Caenorhabditis elegans, UniProt Q9XUB2); experiment: potency of MEX-5 RNA-binding blockers – biochemical, C. elegans, fluorescence polarization, dose response (AID 1960)
T1 sequence (Q9XUB2 whole entry): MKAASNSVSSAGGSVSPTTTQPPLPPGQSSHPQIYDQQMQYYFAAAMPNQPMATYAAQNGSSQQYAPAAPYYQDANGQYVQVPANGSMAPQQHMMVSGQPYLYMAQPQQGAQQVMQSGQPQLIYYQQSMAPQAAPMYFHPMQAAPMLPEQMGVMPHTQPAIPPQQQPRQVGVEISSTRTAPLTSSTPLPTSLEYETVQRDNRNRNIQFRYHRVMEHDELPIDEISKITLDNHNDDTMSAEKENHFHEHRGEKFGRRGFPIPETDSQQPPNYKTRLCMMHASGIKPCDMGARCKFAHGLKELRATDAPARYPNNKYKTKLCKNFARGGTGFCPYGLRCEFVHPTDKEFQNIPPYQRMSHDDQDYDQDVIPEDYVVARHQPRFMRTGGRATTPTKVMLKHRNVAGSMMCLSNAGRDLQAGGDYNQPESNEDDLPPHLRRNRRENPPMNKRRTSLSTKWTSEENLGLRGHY

[7] = target: T2, RNA-binding protein pos-1 (Caenorhabditis elegans, UniProt G5EF15); experiment: disruptors of C. elegans POS-1 RNA interaction – biochemical, fluorescence polarization, dose response (AID 1964);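 also: purified POS-1 fused to maltose binding protein made in E. coli; potency of compounds blocking POS-1 binding to fluorescent RNA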
T2 sequence (G5EF15 whole entry): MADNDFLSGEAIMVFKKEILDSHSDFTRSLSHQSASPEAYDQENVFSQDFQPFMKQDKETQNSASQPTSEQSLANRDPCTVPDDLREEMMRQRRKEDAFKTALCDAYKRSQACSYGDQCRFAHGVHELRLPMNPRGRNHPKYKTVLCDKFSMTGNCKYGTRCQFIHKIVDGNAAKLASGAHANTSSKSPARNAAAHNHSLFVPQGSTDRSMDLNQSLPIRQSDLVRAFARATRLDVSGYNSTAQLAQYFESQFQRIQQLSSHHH

[8] = target: T3, Streptokinase A (Streptococcus pyogenes serotype M1, UniProt P10520); experiment: viability-normalized secreted streptokinase activity reduction – plasminogen activation absorbance, OD405, dose response (AID 1914); type: functional, Streptococcus pyogenes M1 GAS;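 also: secreted streptokinase activity via plasminogen activation per viability signal from cell pellet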
T3 sequence (P10520 whole entry): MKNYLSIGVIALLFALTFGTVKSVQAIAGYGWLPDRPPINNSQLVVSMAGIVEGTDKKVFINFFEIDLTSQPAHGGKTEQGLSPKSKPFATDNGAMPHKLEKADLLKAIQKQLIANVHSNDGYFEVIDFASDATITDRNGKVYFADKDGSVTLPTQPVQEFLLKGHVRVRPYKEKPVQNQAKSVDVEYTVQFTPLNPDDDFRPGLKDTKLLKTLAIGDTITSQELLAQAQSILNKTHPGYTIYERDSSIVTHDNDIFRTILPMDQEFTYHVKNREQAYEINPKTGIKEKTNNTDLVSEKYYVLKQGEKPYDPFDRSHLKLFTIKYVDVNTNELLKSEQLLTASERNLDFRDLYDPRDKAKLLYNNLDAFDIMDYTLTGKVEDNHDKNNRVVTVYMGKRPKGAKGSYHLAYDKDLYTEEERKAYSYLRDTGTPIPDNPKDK

[9] = tested on: Streptococcus sp. 'group A'; experiment: Streptococcus pyogenes SK(-)GAS viability under kanamycin – luminescence, BacTiterGlo, confirmation, counter-screen for streptokinase expression inhibitor project, dose response (AID 1900); type: functional, organism-based
[10] = tested on: Streptococcus; experiment: GAS UMAA2166 growth inhibition – luminescence, BacTiterGlo, counter-screen for streptokinase expression inhibitor project, dose response (AID 1915); type: functional, organism-based;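 also: potency for reduction of bacterial viability or growth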
[11] = NIH3T3 cell viability loss – ATP luminescence, mouse fibroblasts, counter-screen, dose response (AID 2010); type: functional, cell-based;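 also: cells exposed to compound for about 90 hours before reading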
[12] = Trypanosoma cruzi growth suppression in host cells – NIH3T3 host cells, beta-gal luminescence, confirmation (AID 2044); type: functional, cell-based;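 also: intracellular parasites grown in NIH/3T3 mouse fibroblasts as host cells; luminescent beta-galactosidase reporter signal from transgenic T. cruzi replicating inside host cells; inhibitors lower the luminescence signal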
[13] = target: Cytochrome P450 3A4 (Homo sapiens, UniProt P08684);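 also: CYP3A4 tested as one member of a cytochrome P450 panel screen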
Cytochrome P450 3A4, sequence (P08684 whole entry): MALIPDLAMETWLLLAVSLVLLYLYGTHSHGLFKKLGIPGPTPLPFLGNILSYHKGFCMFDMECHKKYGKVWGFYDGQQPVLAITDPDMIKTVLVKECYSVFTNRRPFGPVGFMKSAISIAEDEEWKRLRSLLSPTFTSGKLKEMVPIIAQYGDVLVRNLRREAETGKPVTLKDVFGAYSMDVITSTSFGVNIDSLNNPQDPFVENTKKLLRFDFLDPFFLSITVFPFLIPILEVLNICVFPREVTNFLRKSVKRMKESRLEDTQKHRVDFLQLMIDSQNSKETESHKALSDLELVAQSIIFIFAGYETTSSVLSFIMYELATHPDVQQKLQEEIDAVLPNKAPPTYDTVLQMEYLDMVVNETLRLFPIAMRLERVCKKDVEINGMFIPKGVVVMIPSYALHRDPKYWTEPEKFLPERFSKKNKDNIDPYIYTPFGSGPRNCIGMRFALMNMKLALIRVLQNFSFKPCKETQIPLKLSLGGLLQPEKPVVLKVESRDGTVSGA

[14] = target: T4, Cytochrome P450 1A2 (Homo sapiens, UniProt P05177);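 also: PubChem cytochrome P450 panel assay, CYP1A2 panel member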
T4 sequence (P05177 whole entry): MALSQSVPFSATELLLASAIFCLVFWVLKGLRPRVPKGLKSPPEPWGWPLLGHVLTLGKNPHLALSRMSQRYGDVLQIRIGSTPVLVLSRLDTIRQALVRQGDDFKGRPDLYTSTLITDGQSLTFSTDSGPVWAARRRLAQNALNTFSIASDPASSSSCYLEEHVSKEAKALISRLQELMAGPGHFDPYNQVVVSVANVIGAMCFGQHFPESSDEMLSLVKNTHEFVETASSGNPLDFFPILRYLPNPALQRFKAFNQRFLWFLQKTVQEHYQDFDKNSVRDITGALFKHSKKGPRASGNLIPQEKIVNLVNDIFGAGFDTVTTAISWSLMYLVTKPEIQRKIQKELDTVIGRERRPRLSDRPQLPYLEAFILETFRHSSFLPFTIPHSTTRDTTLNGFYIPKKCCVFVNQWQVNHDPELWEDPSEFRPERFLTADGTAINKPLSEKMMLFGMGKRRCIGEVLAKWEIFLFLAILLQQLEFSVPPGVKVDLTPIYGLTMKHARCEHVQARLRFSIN

[15] = target: Cytochrome P450 2C19 (Homo sapiens, UniProt P33261); experiment: Cytochrome panel assay with activity outcomes. Panel member name: p450-cyp2c19 Compounds with AC50 equal or less than 10 uM are considered active; type: functional; conditions: read-out: AC50
Cytochrome P450 2C19, sequence (P33261 whole entry): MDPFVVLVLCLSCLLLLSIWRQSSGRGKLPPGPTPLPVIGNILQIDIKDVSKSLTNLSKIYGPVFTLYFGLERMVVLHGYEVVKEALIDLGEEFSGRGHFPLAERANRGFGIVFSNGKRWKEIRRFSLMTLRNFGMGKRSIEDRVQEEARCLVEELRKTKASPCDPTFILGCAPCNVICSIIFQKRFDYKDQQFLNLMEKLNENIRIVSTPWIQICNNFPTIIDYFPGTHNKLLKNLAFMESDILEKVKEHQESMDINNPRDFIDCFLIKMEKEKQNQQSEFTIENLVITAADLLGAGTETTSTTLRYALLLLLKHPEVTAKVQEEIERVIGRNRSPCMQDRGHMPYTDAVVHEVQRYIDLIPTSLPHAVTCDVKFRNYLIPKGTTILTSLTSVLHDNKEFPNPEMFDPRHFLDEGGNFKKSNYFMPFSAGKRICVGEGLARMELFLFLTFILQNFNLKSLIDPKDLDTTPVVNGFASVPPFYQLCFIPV

[16] = target: Cytochrome P450 2C9 (Homo sapiens, UniProt P11712)
Cytochrome P450 2C9, sequence (P11712 whole entry): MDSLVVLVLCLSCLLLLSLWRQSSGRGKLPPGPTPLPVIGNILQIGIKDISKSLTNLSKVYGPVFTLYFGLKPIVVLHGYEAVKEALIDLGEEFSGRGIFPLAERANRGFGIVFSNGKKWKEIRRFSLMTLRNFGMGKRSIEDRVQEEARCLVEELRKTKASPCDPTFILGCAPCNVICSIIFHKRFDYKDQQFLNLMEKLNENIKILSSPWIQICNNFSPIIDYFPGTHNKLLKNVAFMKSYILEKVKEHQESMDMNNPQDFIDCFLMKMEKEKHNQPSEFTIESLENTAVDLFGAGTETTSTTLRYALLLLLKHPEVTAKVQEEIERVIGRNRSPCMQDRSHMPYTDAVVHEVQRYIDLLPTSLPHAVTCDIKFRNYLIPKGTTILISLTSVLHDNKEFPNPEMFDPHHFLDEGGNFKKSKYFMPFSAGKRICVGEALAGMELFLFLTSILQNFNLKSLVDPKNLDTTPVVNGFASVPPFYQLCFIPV

Structure (SMILES) | EC50 [1] | EC50 [2] | EC50 [6] | EC50 [7] | other results
O=C(Nc1ccc2oc(-c3ccccc3)nc2c1)C1CCCO1 (centres undefined) | 25.1 µM (active) | 70.4 µM (active) |  |  | 
Cc1c([N+](=O)[O-])c(N)nn1C |  |  |  |  | EC50 [3]: > 120 µM (not active); EC50 [4]: > 120 µM (not active); EC50 [5]: > 120 µM (not active)
Cc1ccc(-c2cc(N)n(Cc3ccc(Cl)cc3)n2)cc1 | > 112 µM (not active) | > 112 µM (not active) |  |  | 
Cc1cc(C=C2C(=O)N(C)C(=S)N(C)C2=O)c(C)n1C1CCCC1 |  |  | 129 µM (active) | 189 µM (active) | 
COc1ccc(-c2cc(C(F)(F)F)nc(NCc3cccs3)n2)cc1 |  |  |  |  | EC50 [8]: 13.8 µM (active); EC50 [9]: 3.73 µM (active); EC50 [10]: > 150 µM (not active); EC50 [11]: > 60 µM (not active); EC50 [12]: 2.19 µM (active)
N#C/C(=N\Nc1ccc(Cl)cc1)C(=O)c1ccsc1 |  |  | 10.8 µM (active) | 81.6 µM (active) | 
COc1cc2c3nnc(-c4ccccc4)c-3cn(Cc3ccc(F)cc3)c2cc1OC |  |  | > 300 µM (not active) | > 300 µM (not active) | 
CC(C)(C)C(Cn1ccnc1)NC(=O)c1ccc2nc(C3CC3)oc2c1 (centres undefined) | > 112 µM (not active) | > 112 µM (not active) |  |  | 
N#C/C(=C\N1CCN(Cc2ccc3c(c2)OCO3)CC1)c1nc2ccccc2s1 |  |  | > 300 µM (not active) | > 300 µM (not active) | 
COc1ccc(CN2CCCC(C(=O)c3ccc(Cl)cc3)C2)cc1Cn1cccn1 (centres undefined) |  |  |  |  | EC50 [3]: > 120 µM (not active); EC50 [4]: > 120 µM (not active); EC50 [5]: > 120 µM (not active)
CC(=O)N(Cc1c(C#N)c2ccccc2n1C)c1ccccc1 | > 112 µM (not active) | > 112 µM (not active) |  |  | 
CCOC(=O)N1CCN(S(=O)(=O)c2ccc(C(=O)Nc3ccc(F)cc3F)cc2)CC1 |  |  |  |  | AC50 [13]: 14.1 µM (inconclusive); EC50 [3]: 7.91 µM (active); AC50 [14]: 6.31 µM (inconclusive); EC50 [4]: 10.9 µM (active); AC50 [15]: 25.1 µM (inconclusive); EC50 [5]: > 120 µM (not active)
Cc1ccc(S(=O)(=O)NNC(=O)c2ccccc2-n2cccc2)cc1 |  |  |  |  | EC50 [3]: > 120 µM (not active); EC50 [4]: > 120 µM (not active); EC50 [5]: > 120 µM (not active)
CC(=O)N/C=C1\C(=O)N(C)C(=O)C(C#N)=C1C |  |  | 34.9 µM (active) | 36.1 µM (active) | 
O=C(NC1CC1)C1=C[C@@H](c2coc3ccccc3c2=O)C[C@@H](OCc2ccc(CO)cc2)O1 |  |  |  |  | EC50 [3]: > 120 µM (not active); EC50 [4]: > 120 µM (not active); EC50 [5]: > 120 µM (not active)
COc1ccc(-n2nc3c(=O)[nH][nH]c3cc2=O)cc1 |  |  | 3.67 µM (active) | 13.1 µM (active) | 

Structure (SMILES) | EC50 [1] | EC50 [2] | EC50 [6] | EC50 [7] | other results
Cc1ccnn1CC(=O)N/N=C/c1c[nH]nc1-c1ccccc1 | > 112 µM (not active) | > 112 µM (not active) |  |  | 
O=C(COC(=O)c1ccc(Cl)c(S(=O)(=O)NCc2ccccc2)c1)NCC1CCCO1 (centres undefined) | > 112 µM (not active) | > 112 µM (not active) |  |  | 
CCOC(=O)c1cnc2c(OC)cccc2c1N1CC(C)CC(C)C1 (centres undefined) |  |  |  |  | EC50 [3]: 14.4 µM (active); EC50 [4]: 13.9 µM (active); EC50 [5]: > 120 µM (not active)
CC(C)CNC(=O)C1Nc2ccccc2C2C=CCC12 (centres undefined) |  |  | > 300 µM (not active) | > 300 µM (not active) | 
CC1CCN(S(=O)(=O)c2ccc3c(c2)N(CC(=O)N(C)Cc2ccco2)C(=O)CO3)CC1 |  |  |  |  | EC50 [3]: 21.2 µM (active); EC50 [4]: > 120 µM (not active); EC50 [5]: > 120 µM (not active)
N#Cc1c(N)nc(SCc2ccccc2)c(C#N)c1-c1ccco1 |  |  | > 300 µM (not active) | > 300 µM (not active) | 
COc1cccc(C(=O)c2cc3ccc(O)cc3oc2=O)c1 | 1.28 µM (active) | 0.571 µM (active) |  |  | 
Cc1csc(NC(=O)c2cc3c(s2)CCCCC3)n1 |  |  |  |  | EC50 [3]: 3.58 µM (active); EC50 [5]: 2.57 µM (active)
CC(N)Cc1ccccc1Sc1ccc(O)cc1 (centres undefined) | > 112 µM (not active) | > 112 µM (not active) |  |  | AC50 [16]: 17.8 µM (inconclusive)
C/C(=N\NC(=O)C1(C)CC1(Br)Br)c1ccc(NC(=O)c2ccc(C)o2)cc1 (centres undefined) | > 112 µM (not active) | > 112 µM (not active) |  |  | 
COc1ccc(C2=Nn3c(nnc3-c3cc(C)[nH]n3)SC2)cc1 | > 112 µM (not active) | > 112 µM (not active) |  |  | 
O=Cc1cn(Cc2ccc(F)cc2Cl)c2ccccc12 |  |  |  |  | EC50 [3]: 12.4 µM (active); EC50 [4]: 16.2 µM (active); EC50 [5]: 16.8 µM (active)
CC1=C(C#N)C(=O)N(C)C(=O)/C1=C\NNc1ccc(C)c(C)c1 |  |  | 40.6 µM (active) | > 300 µM (not active) | 
Cc1sc(-n2c(C)cc(C=C3C(=O)NC(=O)NC3=O)c2C)c(C#N)c1C |  |  | > 300 µM (not active) | > 300 µM (not active) | 
COc1cc(C2C(C#N)=C(N)OC3=C2C(=O)CC(C)(C)C3)cc2c1OCO2 (centres undefined) |  |  | > 300 µM (not active) | > 300 µM (not active) | 
NC(=O)c1ccc[n+](Cc2ccccc2)c1 | > 112 µM (not active) | > 112 µM (not active) |  |  | 
